What was measured:
A549 cells = assay: Cell Viability Assay, A549; assay type: cell-based; conditions: A549; human lung carcinoma; 72 h; CellTiter-Glo
Experimental: (§1) MIA PaCa-2 (human pancreatic carcinoma; ATCC CRL-1420) or A549 (human lung carcinoma; ATCC CCL-185) cells were cultured in RPMI 1640 medium containing 10% fetal bovine serum and 1×penicillin/streptomycin/L-glutamine. Cells were seeded in 384-well plates at a density of 1.67E+04 cells/mL and incubated at 37° C., 5% CO2, overnight. Serially-diluted compound or DMSO was added to the cells, and plates were incubated at 37° C., 5% CO2 for 72 h. Cell viability was measured using a CellTiter-Glo® Luminescent Cell Viability Assay kit (Promega) according to the manufacturer's protocol. The luminescence signal of treated samples was normalized to DMSO control, and data were analyzed using a 4-parameter logistic model to calculate IC50 values.
(§2) The following data (Table 3) categorizes the IC50 of each compound for inhibiting enzymatic activity of KRAS^G12C in the indicated cells.

KRAS^G12C = KRAS^G12C (Homo sapiens, UniProt P01116, C118A/G12C); assay: Coupled Nucleotide Exchange Assay; assay type: biochemical; conditions: GDP-bound KRAS (aa 1-169) G12C/C118A; 2 h compound pre-incubation; SOS-mediated exchange, 30 min; cRAF binding (AlphaLISA)
Sequence of KRAS^G12C (P01116 1-169 isoform P01116-2 G12C/C118A): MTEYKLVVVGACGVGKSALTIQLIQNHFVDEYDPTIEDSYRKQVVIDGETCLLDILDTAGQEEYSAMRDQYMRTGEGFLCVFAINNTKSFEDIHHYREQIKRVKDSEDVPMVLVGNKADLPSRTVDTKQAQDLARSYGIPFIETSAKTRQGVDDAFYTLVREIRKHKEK
Procedure, shortened: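 GDP-bound His-tagged KRAS aa 1-169 (G12C/C118A) pre-incubated 2 h with compound in 25 mM HEPES pH 7.4, 10 mM MgCl2, 0.01% Triton X-100 (±0.1% BSA), then SOS (aa 564-1049) plus GTP added for 30 min. GST-cRAF RBD binding read by AlphaLISA; DMSO-normalized, 4-parameter fit gives IC50.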

MIA PaCa-2 cells = assay: Cell Viability Assay, MIA PaCa-2; assay type: cell-based; conditions: Homo sapiens, MIA PaCa-2, 72 h, human pancreatic carcinoma, CellTiter-Glo
Experimental: as §1, §2

C=CC(=O)N1CCN([C@@H]2CN(c3cc(N4CCC5(CC4)OCc4ncsc45)nc(C(F)(F)F)n3)[C@@H]2C)CC1 [Compound 3-001, 1-(4-((2R,3R)-1-(6-(4H-Spiro[furo[3,4-d]thiazole-6,4′-piperidin]-1′-yl)-2-(trifluoromethyl)pyrimidin-4-yl)-2-methylazetidin-3-yl)piperazin-1-yl) prop-2-en-1-one]
IC50 (A549 cells): > 5000 nM
IC50 (KRAS^G12C): 376 nM
IC50 (MIA PaCa-2 cells): 665 nM

C=CC(=O)N1CCN([C@@H]2CN(c3cc(N4CCC5(CC4)OCCc4ncsc45)nc(C(F)(F)F)n3)[C@@H]2C)CC1 [Compound 3-002, 1-(4-((2R,3R)-1-(6-(6′,7′-Dihydrospiro[piperidine-4,4′-pyrano[4,3-d]thiazol]-1-yl)-2-(trifluoromethyl)pyrimidin-4-yl)-2-methylazetidin-3-yl)piperazin-1-yl)prop-2-en-1-one]
IC50 (A549 cells): > 5000 nM
IC50 (KRAS^G12C): 315 nM
IC50 (MIA PaCa-2 cells): 625 nM

C=CC(=O)N1CCN([C@@H]2CN(c3cc(N4CCC5(C[C@H]4C)OCC=C5C)nc(C(F)F)n3)[C@@H]2C)CC1 (stereo partly drawn) [Compound 3-003, 1-(4-((2R,3R)-1-(2-(Difluoromethyl)-6-((7R)-4,7-dimethyl-1-oxa-8-azaspiro[4.5]dec-3-en-8-yl)pyrimidin-4-yl)-2-methylazetidin-3-yl)piperazin-1-yl) prop-2-en-1-one]
IC50 (A549 cells): > 5000 nM
IC50 (KRAS^G12C): 512 nM
IC50 (MIA PaCa-2 cells): 832 nM

C=CC(=O)N1CCN(C2CN(c3cc(N4CCC5(CC4)c4ccccc4C(=O)N5C)nc(C(F)(F)F)c3C#N)C2)CC1 [Compound 3-004, 4-(3-(4-Acryloylpiperazin-1-yl)azetidin-1-yl)-6-(2-methyl-3-oxospiro[isoindoline-1,4′-piperidin]-1′-yl)-2-(trifluoromethyl)nicotinonitrile]
IC50 (A549 cells): > 5000 nM
IC50 (KRAS^G12C): 154 nM
IC50 (MIA PaCa-2 cells): 527 nM

C=CC(=O)N1CCN([C@@H]2CN(c3cc(N4CCC5(C[C@H]4C)OCC=C5C)nc(C(F)(F)F)n3)[C@@H]2C)CC1 (stereo partly drawn) [Compound 3-005, 1-(4-((2R,3R)-1-(6-(4.7-dimethyl-1-oxa-8-azaspiro[4.5]dec-3-en-8-yl)-2-(trifluoromethyl)pyr-imidin-4-yl)-2-methylazetidin-3-yl)piperazin-1-yl)prop-2-en-1-one]
IC50 (A549 cells): > 5000 nM
IC50 (KRAS^G12C): 184 nM
IC50 (MIA PaCa-2 cells): 626 nM

C=CC(=O)N1CCN(C2CN(c3cc(N4CCC5(CC4)c4ccccc4CN5C)nc(C(F)(F)F)c3C#N)C2)CC1 [Compound 3-014]
IC50 (A549 cells): > 5000 nM
IC50 (KRAS^G12C): 498 nM
IC50 (MIA PaCa-2 cells): 694 nM

C=CC(=O)N1CCN(C2CN(c3cc(N4CCC5(CC4)COc4ccccc45)nc(C(F)(F)F)c3C#N)C2)CC1 [Compound 3-015]
IC50 (A549 cells): > 5000 nM
IC50 (KRAS^G12C): 669 nM
IC50 (MIA PaCa-2 cells): 2760 nM

C=CC(=O)N1CCN(C2CN(c3cc(N4CCC5(CCC(=O)N5)CC4)nc(C(F)(F)F)c3C#N)C2)CC1 [Compound 3-016]
IC50 (A549 cells): > 5000 nM
IC50 (KRAS^G12C): 969 nM
IC50 (MIA PaCa-2 cells): > 5000 nM

C=CC(=O)N1CCN(C2CN(c3cc(N4CCC5(CC4)CC(Br)=NO5)nc(C(F)(F)F)c3C#N)C2)CC1 [Compound 3-017, 4-(3-(4-acryloylpiperazin-1-yl)-azetidin-1-yl)-6-(3-bromo-1-oxa-2.8-diazaspiro[4.5]dec-2-en-8-yl)-2-(trifluoromethyl)nicotinonitrile]
IC50 (A549 cells): > 5000 nM
IC50 (KRAS^G12C): 828 nM
IC50 (MIA PaCa-2 cells): 1990 nM

C=CC(=O)N1CCN(C2CN(c3cc(N4CCC5(CC4)OCc4ccccc45)nc(C(F)(F)F)c3C#N)C2)CC1 [Compound 3-028, 4-(3-(4-acryloylpiperazin-1-yl)azetidin-1-yl)-6-(3H-spiro[isobenzofuran-1,4′-piperidin]-1′-yl)-2-(trifluoromethyl)nicotinonitrile]
IC50 (A549 cells): > 3330 nM
IC50 (KRAS^G12C): 1790 nM
IC50 (MIA PaCa-2 cells): 1340 nM

C=CC(=O)N1CCN(C2CN(c3cc(N4CCC5(CCCO5)CC4)nc(C(F)(F)F)c3C#N)C2)CC1 [Compound 3-039, 4-(3-(4-acryloylpiperazin-1-yl)azetidin-1-yl)-6-(1-oxa-8-azaspiro[4.5]decan-8-yl)-2-(trifluoromethyl)nicotinonitrile]
IC50 (A549 cells): > 5000 nM
IC50 (KRAS^G12C): 1650 nM
IC50 (MIA PaCa-2 cells): 2410 nM

C=CC(=O)N1CCN(C2CN(c3cc(N4CCC5(CC4)OCc4cnccc45)nc(C(F)(F)F)c3C#N)C2)CC1 [Compound 3-043]
IC50 (A549 cells): > 5000 nM
IC50 (KRAS^G12C): 1590 nM
IC50 (MIA PaCa-2 cells): 1290 nM

C=CC(=O)N1CCN(C2CN(c3cc(N4CCC5(CC4)OCc4ncsc45)nc(C(F)(F)F)c3C#N)C2)CC1 [Compound 3-046, 4-(3-(4-Acryloylpiperazin-1-yl)azetidin-1-yl)-6-(4H-spiro[furo[3,4-d]thiazole-6,4′-piperidin]-1′-yl)-2-(trifluoromethyl)nicotinonitrile]
IC50 (A549 cells): > 5000 nM
IC50 (KRAS^G12C): 253 nM
IC50 (MIA PaCa-2 cells): 1140 nM

C=CC(=O)N1CCN(C2CN(c3cc(N4CCC5(CC4)OCc4cnn(C)c45)nc(C(F)(F)F)c3C#N)C2)CC1 [Compound 3-049, 4-(3-(4-acryloylpiperazin-1-yl)azetidin-1-yl)-6-(1-methyl-1,4-dihydrospiro[furo[3,4-c]pyrazole-6,4′-piperidin]-1′-yl)-2-(trifluoromethyl)nicotinonitrile]
IC50 (A549 cells): > 5000 nM
IC50 (KRAS^G12C): 664 nM
IC50 (MIA PaCa-2 cells): 979 nM

C=CC(=O)N1CCN(C2CN(c3cc(N4CCC5(CC4)OCC=C5C)nc(C(F)(F)F)c3C#N)C2)CC1 [Compound 3-051, 4-(3-(4-Acryloylpiperazin-1-yl)azetidin-1-yl)-6-(4-methyl-1-oxa-8-azaspiro[4.5]dec-3-en-8-yl)-2-(trifluoromethyl)nicotinonitrile]
IC50 (A549 cells): > 5000 nM
IC50 (KRAS^G12C): 102 nM
IC50 (MIA PaCa-2 cells): 284 nM

C=CC(=O)N1CCN([C@@H]2CN(c3cc(N4CCC5(CC4)OCC=C5C)nc(C(F)(F)F)c3C#N)[C@@H]2C)CC1 [Compound 3-052, 4-((2R,3R)-3-(4-Acryloylpiperazin-1-yl)-2-methylazetidin-1-yl)-6-(4-methyl-1-oxa-8-azaspiro[4.5]dec-3-en-8-yl)-2-(trifluoromethyl)nicotinonitrile]
IC50 (A549 cells): 4550 nM
IC50 (KRAS^G12C): 161 nM
IC50 (MIA PaCa-2 cells): 254 nM

C=CC(=O)N1CCN(C2CN(c3cc(N4CCC5(CC4)OC(C)C=C5C)nc(C(F)(F)F)c3C#N)C2)CC1 (stereo not drawn) [Compound 3-053, 4-(3-(4-Acryloylpiperazin-1-yl)azetidin-1-yl)-6-(2,4-dimethyl-1-oxa-8-azaspiro[4.5]dec-3-en-8-yl)-2-(trifluoromethyl)nicotinonitrile]
IC50 (A549 cells): > 5000 nM
IC50 (KRAS^G12C): 191 nM
IC50 (MIA PaCa-2 cells): 755 nM

C=CC(=O)N1CCN([C@@H]2CN(c3cc(N4CCC5(CC4)OCC=C5C)nc(C(F)F)c3C)[C@@H]2C)CC1 [Compound 3-057, 1-(4-((2R,3R)-1-(2-(Difluoromethyl)-3-methyl-6-(4-methyl-1-oxa-8-azaspiro[4.5]dec-3-en-8-yl)pyridin-4-yl)-2-methylazetidin-3-yl)piperazin-1-yl) prop-2-en-1-one]
IC50 (A549 cells): > 5000 nM
IC50 (KRAS^G12C): 288 nM
IC50 (MIA PaCa-2 cells): 272 nM

C=CC(=O)N1CCN(C2CN(c3cc(N4CCC5(CC4)OCCC5F)nc(C(F)(F)F)c3C#N)C2)CC1 (stereo not drawn) [Compound 3-058, 4-(3-(4-Acryloylpiperazin-1-yl)azetidin-1-yl)-6-(4-fluoro-1-oxa-8-azaspiro[4.5]decan-8-yl)-2-(trifluoromethyl)nicotinonitrile]
IC50 (A549 cells): > 5000 nM
IC50 (KRAS^G12C): 920 nM
IC50 (MIA PaCa-2 cells): > 5000 nM

C=CC(=O)N1CCN(C2CN(c3cc(N4CCC5(C=CCO5)CC4)nc(C(F)(F)F)c3C#N)C2)CC1 [Compound 3-059, 4-(3-(4-Acryloylpiperazin-1-yl)azetidin-1-yl)-6-(1-oxa-8-azaspiro[4.5]dec-3-en-8-yl)-2-(trifluoromethyl)nicotinonitrile]
IC50 (A549 cells): > 5000 nM
IC50 (KRAS^G12C): 215 nM
IC50 (MIA PaCa-2 cells): 582 nM

C=CC(=O)N1CCN([C@@H]2CN(c3cc(N4CCC5(CC4)OCC=C5C)nc(C(F)(F)F)n3)[C@@H]2C)CC1 [Compound 3-061, 1-(4-((2R,3R)-2-Methyl-1-(6-(4-methyl-1-oxa-8-azaspiro[4.5]dec-3-en-8-yl)-2-(trifluoromethyl)pyrimidin-4-yl)azetidin-3-yl)piperazin-1-yl)prop-2-en-1-one]
IC50 (A549 cells): > 5000 nM
IC50 (KRAS^G12C): 184 nM
IC50 (MIA PaCa-2 cells): 936 nM

C=CC(=O)N1CCN([C@@H]2CN(c3cc(N4CCC5(CC4)OCCC5=C)nc(C(F)(F)F)n3)[C@@H]2C)CC1 [Compound 3-074, 1-(4-((2R,3R)-2-Methyl-1-(6-(4-methylene-1-oxa-8-azaspiro[4.5]decan8-yl)-2-(trifluoromethyl)pyrimidin-4-yl)azetidin-3-yl)piperazin-1-yl) prop-2-en-1-one]
IC50 (A549 cells): > 5000 nM
IC50 (KRAS^G12C): 423 nM
IC50 (MIA PaCa-2 cells): 1160 nM

C=CC(=O)N1CCN(C2CN(c3cc(N4CCC5(CCC(=O)N5C)CC4)nc(C(F)(F)F)c3C#N)C2)CC1 [Compound 3-075, 4-(3-(4-Acryloylpiperazin-1-yl)azetidin-1-yl)-6-(1-methyl-2-oxo-1,8-diazaspiro[4.5]decan-8-yl)-2-(trifluoromethyl)nicotinonitrile]
IC50 (A549 cells): > 5000 nM
IC50 (KRAS^G12C): 704 nM
IC50 (MIA PaCa-2 cells): 2800 nM

— patent US20260327243A1, “SPIRO-HETEROCYCLIC INHIBITORS OF KRAS G12C MUTANT PROTEINS AND USES THEREOF” (AMGEN INC., priority 2023, published 2026)
